Literature values as cited in patent publication US20090062406A1, “Aqueous concentrates of isethionate, taurate and betaine” (Clariant International Ltd., priority 2007, published 2009).

Conditions: 20° C.

Solubility in water: 10000 µg/mL
Substance: sodium methyl cocoyl taurate
